Values quoted from earlier work, collected in patent US20250000794A1, “IMPROVED DRUG PROCESSING METHODS TO INCREASE DRUG LOADING” (BOARD OF REGENTS, THE UNIVERSITY OF TEXAS SYSTEM, priority 2021, published 2025).

Conditions: water

## NCCCC[C@H](N)C(=O)O [L-lysine]
  Solubility (g/100 mL) Room Temperature: 150 g/100 mL
